Here are results for six compounds from patent publication US12139520B2 (priority 2020, dated 2024).

Bridge positions count the residues as written; N and C are the ends. Square brackets hold non-standard residues; d marks the D form. Peptide text beside a SMILES is read from it. Hyp = O=C(O)[C@@H]1C[C@@H](O)CN1; Cit = NC(=O)NCCC[C@H](N)C(=O)O Some results are limits rather than exact numbers.

The term EC50 denotes the midpoint of the concentration-response curve.

Series [1] can be described thus: Physical stability of peptide analogues (Thioflavin T fibrillation). The conditions noted are these: maximum ThT signal normalized between hAMY maximum and buffer background; 40° C., shaking, four days; pH 7 per table title. The format is physicochemical. The method in brief:
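Samples are stressed at 40 °C for four days, being shaken at 700 rpm before each 10-min fluorescence reading of 4 μM Thioflavin T. Buffers were pH 4 acetate or pH 7 phosphate. Reported values are smoothed maximum ThT signals as a percentage of the hAMY-to-background range.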

The target in series [2] is T1, hAMY3 receptor (Homo sapiens, UniProt O60896+P30988).
T1 sequence (P30988 25-474): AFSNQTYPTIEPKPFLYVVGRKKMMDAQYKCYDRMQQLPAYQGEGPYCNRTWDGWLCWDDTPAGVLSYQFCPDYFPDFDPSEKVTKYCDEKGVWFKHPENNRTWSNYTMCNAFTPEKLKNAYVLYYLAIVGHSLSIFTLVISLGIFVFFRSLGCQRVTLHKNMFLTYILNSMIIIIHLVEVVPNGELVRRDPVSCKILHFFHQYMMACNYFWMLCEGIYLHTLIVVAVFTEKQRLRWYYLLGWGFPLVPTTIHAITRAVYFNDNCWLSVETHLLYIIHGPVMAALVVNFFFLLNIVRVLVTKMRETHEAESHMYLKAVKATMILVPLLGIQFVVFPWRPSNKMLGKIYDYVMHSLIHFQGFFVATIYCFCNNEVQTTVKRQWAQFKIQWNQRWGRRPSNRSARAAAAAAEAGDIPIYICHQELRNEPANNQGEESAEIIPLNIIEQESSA
T1 sequence (O60896 24-148 partner): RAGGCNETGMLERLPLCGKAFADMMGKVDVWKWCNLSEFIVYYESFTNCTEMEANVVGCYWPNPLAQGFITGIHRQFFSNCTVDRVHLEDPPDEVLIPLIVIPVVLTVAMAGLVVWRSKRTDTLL
As to the kind of experiment: cAMP assay for in vitro receptor activation, hAMY3-R. The format is cell-based. The following applies: cAMP assay, hAMY3 receptor; read-out: hAMY3R EC50. In outline: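 Receptor activation was measured as cAMP accumulation in a monoclonal cell line stably overexpressing hAMY3. Stimulation with graded doses lasted 30 min at room temperature in the presence of 0.5 mM IBMX, with human amylin as positive control.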

Series [3] has as its target hAM1 receptor (Homo sapiens, UniProt O60895+Q16602). In words: cAMP assay for in vitro receptor activation, hAM1-R. The series is classed as cell-based. The following applies: cAMP assay, hAM1 receptor; read-out: hAM1R EC50. The method in brief:
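cAMP accumulation was measured in a monoclonal cell line stably overexpressing the hAM1 receptor. Frozen aliquots were thawed and plated at 8000 cells/well in DPBS containing 0.05% casein and 0.5 mM IBMX.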
For orientation: Changes in cAMP serve as a functional read-out for many G protein-coupled receptors.

Chain of hAM1 receptor (Q16602 23-461): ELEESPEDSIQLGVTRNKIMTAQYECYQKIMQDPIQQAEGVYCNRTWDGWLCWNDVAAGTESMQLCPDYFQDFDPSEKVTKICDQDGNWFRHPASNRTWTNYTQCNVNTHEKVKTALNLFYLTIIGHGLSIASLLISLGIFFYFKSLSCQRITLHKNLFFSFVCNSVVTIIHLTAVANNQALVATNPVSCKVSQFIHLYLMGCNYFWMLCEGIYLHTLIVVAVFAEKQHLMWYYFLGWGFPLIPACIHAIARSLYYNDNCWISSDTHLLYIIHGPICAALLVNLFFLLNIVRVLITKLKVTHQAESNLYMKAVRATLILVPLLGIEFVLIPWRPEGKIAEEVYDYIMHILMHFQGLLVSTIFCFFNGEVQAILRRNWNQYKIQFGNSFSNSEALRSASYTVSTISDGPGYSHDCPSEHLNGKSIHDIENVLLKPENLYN
Chain of hAM1 receptor (O60895 43-175 partner): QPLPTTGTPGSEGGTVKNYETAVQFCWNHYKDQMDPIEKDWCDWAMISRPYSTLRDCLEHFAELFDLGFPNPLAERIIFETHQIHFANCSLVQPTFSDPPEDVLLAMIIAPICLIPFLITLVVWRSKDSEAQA

Regarding `CC[C@H](C)[C@H](NC(=O)[C@H](CCC(N)=O)NC(=O)[C@H](Cc1c[nH]cn1)NC(=O)[C@H](C)NC(=O)[C@H](CC(C)C)NC(=O)[C@H](CCCNC(N)=O)NC(=O)[C@H](CCC(N)=O)NC(=O)[C@@H](NC(=O)[C@@H](NC(=O)[C@@H]1CSSC[C@H](NC(=O)CN)C(=O)N[C@@H](CCCNC(=N)N)C(=O)N[C@@H](Cc2ccccc2)C(=O)NCC(=O)N[C@@H]([C@@H](C)O)C(=O)N1)[C@@H](C)O)C(C)C)C(=O)N[C@@H](Cc1ccc(O)cc1)C(=O)N[C@@H](CCC(N)=O)C(=O)N[C@@H](Cc1ccccc1)C(=O)N[C@H](C(=O)N[C@@H](CC(=O)O)C(=O)N[C@@H](CCCCN)C(=O)N[C@@H](CC(=O)O)C(=O)N[C@@H](CCCCN)C(=O)N[C@@H](CC(=O)O)C(=O)N[C@@H](CC(N)=O)C(=O)N[C@H](C(=O)N[C@@H](C)C(=O)N1CCC[C@H]1C(=O)N[C@@H](CCCNC(=N)N)C(=O)N[C@@H](CO)C(=O)N[C@@H](CC(N)=O)C(=O)N[C@H](C(=O)N[C@@H](CO)C(=O)N1CCC[C@H]1C(=O)N[C@@H](CCC(N)=O)C(=O)NCC(=O)N1C[C@H](O)C[C@H]1C(N)=O)[C@@H](C)CC)C(C)C)[C@@H](C)O` [compound 300] (H-GCRFGTCTVQ[Cit]LAHQIYQFTDKDKDNVAPRSNISPQG[Hyp]-NH2; disulfide 2-7; N-terminus assumed), in series [1], the “Max ThT signal (%)” value amounted to 17.850%. The half-maximal effective concentration (EC50) in series [2] is 0.076 nM; in series [3] it was > 5000 nM.
The corresponding values for `CC[C@H](C)[C@H](NC(=O)[C@H](CCC(N)=O)NC(=O)[C@H](Cc1c[nH]cn1)NC(=O)[C@H](C)NC(=O)[C@H](CC(C)C)NC(=O)[C@H](CCCNC(N)=O)NC(=O)[C@H](CCC(N)=O)NC(=O)[C@@H](NC(=O)[C@@H](NC(=O)[C@@H]1CSSC[C@H](NC(=O)CN)C(=O)N[C@@H](CCCNC(=N)N)C(=O)N[C@@H](Cc2ccccc2)C(=O)NCC(=O)N[C@@H]([C@@H](C)O)C(=O)N1)[C@@H](C)O)C(C)C)C(=O)N[C@@H](Cc1ccc(O)cc1)C(=O)N[C@@H](CCC(N)=O)C(=O)N[C@@H](Cc1ccccc1)C(=O)N[C@H](C(=O)N[C@@H](CC(=O)O)C(=O)N[C@@H](CCCCN)C(=O)N[C@@H](CC(=O)O)C(=O)N[C@@H](CCCCN)C(=O)N[C@@H](CC(=O)O)C(=O)N[C@@H](CC(N)=O)C(=O)N[C@H](C(=O)N[C@@H](C)C(=O)N1CCC[C@H]1C(=O)N[C@@H](CCCNC(=N)N)C(=O)N[C@@H](CO)C(=O)N[C@@H](CCCCN)C(=O)N[C@H](C(=O)N[C@@H](CO)C(=O)N1CCC[C@H]1C(=O)N[C@@H](CCC(N)=O)C(=O)NCC(=O)N1C[C@H](O)C[C@H]1C(N)=O)C(C)C)C(C)C)[C@@H](C)O` [compound 305] (H-GCRFGTCTVQ[Cit]LAHQIYQFTDKDKDNVAPRSKVSPQG[Hyp]-NH2; disulfide 2-7) are 24.600%, 0.085 nM and > 5000 nM.
The like results for `CC[C@H](C)[C@H](NC(=O)[C@H](CCC(N)=O)NC(=O)[C@H](CC(=O)O)NC(=O)[C@H](C)NC(=O)[C@H](CC(C)C)NC(=O)[C@H](Cc1c[nH]c2ccccc12)NC(=O)[C@H](C)NC(=O)[C@@H](NC(=O)[C@@H](NC(=O)[C@@H]1CSSC[C@H](NC(=O)[C@@H](N)CCCCN)C(=O)N[C@@H](CC(N)=O)C(=O)N[C@@H]([C@@H](C)O)C(=O)N[C@@H](CO)C(=O)N[C@@H]([C@@H](C)O)C(=O)N1)[C@@H](C)O)C(C)C)C(=O)N[C@H](C(=O)N[C@@H](CCC(N)=O)C(=O)N[C@@H](Cc1ccccc1)C(=O)N[C@@H](CO)C(=O)N[C@@H](CC(N)=O)C(=O)N[C@@H](CCCCN)C(=O)N[C@@H](CC(=O)O)C(=O)N[C@@H](CCCCN)C(=O)N[C@@H](C)C(=O)N[C@@H](CCC(N)=O)C(=O)N[C@H](C(=O)N[C@@H](CO)C(=O)N1CCC[C@H]1C(=O)N1CCC[C@H]1C(=O)N[C@H](C(=O)N[C@@H](CCC(=O)O)C(=O)N[C@H](C(=O)NCC(=O)N1CCC[C@H]1C(=O)N[C@@H](CC(N)=O)C(=O)N[C@@H](CO)C(=O)N1C[C@H](O)C[C@H]1C(N)=O)C(C)C)[C@@H](C)O)C(C)C)[C@@H](C)O` [compound 306] (H-KCNTSTCTVAWLADQITQFSNKDKAQVSPPTEVGPNS[Hyp]-NH2; disulfide 2-7; N-terminus assumed) were, in that order, 3.000%, 0.003 nM and > 5000 nM.
The corresponding values for `CC[C@H](C)[C@H](NC(=O)[C@H](CCC(N)=O)NC(=O)[C@H](CC(=O)O)NC(=O)[C@H](C)NC(=O)[C@H](CC(C)C)NC(=O)[C@H](Cc1c[nH]c2ccccc12)NC(=O)[C@H](CC(N)=O)NC(=O)[C@@H](NC(=O)[C@@H](NC(=O)[C@@H]1CSSC[C@H](NC(=O)[C@@H](N)CCCNC(=N)N)C(=O)N[C@@H](CC(N)=O)C(=O)N[C@@H](C)C(=O)N[C@@H](CO)C(=O)N[C@@H]([C@@H](C)O)C(=O)N1)[C@@H](C)O)C(C)C)C(=O)N[C@H](C(=O)N[C@@H](CCC(N)=O)C(=O)N[C@@H](Cc1ccccc1)C(=O)N[C@@H](CO)C(=O)N[C@@H](CC(N)=O)C(=O)N[C@@H](CCCCN)C(=O)N[C@@H](CC(=O)O)C(=O)N[C@@H](CCCCN)C(=O)N[C@@H](C)C(=O)N[C@@H](CCC(N)=O)C(=O)N[C@H](C(=O)N[C@@H](CO)C(=O)N1CCC[C@H]1C(=O)N1CCC[C@H]1C(=O)N[C@H](C(=O)N[C@@H](CCC(=O)O)C(=O)N[C@H](C(=O)NCC(=O)N1CCC[C@H]1C(=O)N[C@@H](CC(N)=O)C(=O)N[C@@H](CO)C(=O)N1C[C@H](O)C[C@H]1C(N)=O)C(C)C)[C@@H](C)O)C(C)C)[C@@H](C)O` [compound 307] (H-RCNASTCTVNWLADQITQFSNKDKAQVSPPTEVGPNS[Hyp]-NH2; disulfide 2-7; N-terminus assumed) are 11.200%, 0.01 nM and > 5000 nM.
As to `CC[C@H](C)[C@H](NC(=O)[C@H](C)NC(=O)[C@H](Cc1c[nH]cn1)NC(=O)[C@H](C)NC(=O)[C@H](CC(C)C)NC(=O)[C@H](Cc1c[nH]c2ccccc12)NC(=O)[C@H](CCC(N)=O)NC(=O)[C@@H](NC(=O)[C@@H](NC(=O)[C@@H]1CSSC[C@H](NC(=O)[C@@H](N)CCCCN)C(=O)N[C@@H](CC(N)=O)C(=O)N[C@@H]([C@@H](C)O)C(=O)N[C@@H](C)C(=O)N[C@@H]([C@@H](C)O)C(=O)N1)[C@@H](C)O)C(C)C)C(=O)N[C@@H](Cc1ccc(O)cc1)C(=O)N[C@@H](CCC(N)=O)C(=O)N[C@@H](Cc1ccccc1)C(=O)N[C@H](C(=O)N[C@@H](CC(=O)O)C(=O)N[C@@H](CCCCN)C(=O)N[C@@H](CC(=O)O)C(=O)N[C@@H](CCCCN)C(=O)N[C@@H](CC(=O)O)C(=O)N[C@@H](CC(N)=O)C(=O)N[C@H](C(=O)N[C@@H](C)C(=O)N1CCC[C@H]1C(=O)N1CCC[C@H]1C(=O)N[C@H](C(=O)N[C@@H](CC(N)=O)C(=O)N[C@H](C(=O)NCC(=O)N[C@@H](CO)C(=O)N[C@@H](CC(N)=O)C(=O)NCC(=O)N1C[C@H](O)C[C@H]1C(N)=O)C(C)C)[C@@H](C)O)C(C)C)[C@@H](C)O` [compound 308] (H-KCNTATCTVQWLAHAIYQFTDKDKDNVAPPTNVGSNG[Hyp]-NH2; disulfide 2-7; N-terminus assumed), the “Max ThT signal (%)” value in series [1] came to 14.500%. For the same compound, the EC50 in series [2] is 0.014 nM; in series [3] it was > 5000 nM.
The corresponding values for `CC[C@H](C)[C@H](NC(=O)[C@H](CCC(N)=O)NC(=O)[C@H](Cc1c[nH]cn1)NC(=O)[C@H](C)NC(=O)[C@H](CC(C)C)NC(=O)[C@H](Cc1c[nH]c2ccccc12)NC(=O)[C@H](CCC(N)=O)NC(=O)[C@@H](NC(=O)[C@@H](NC(=O)[C@@H]1CSSC[C@H](NC(=O)[C@@H](N)CCCCN)C(=O)N[C@@H](CC(N)=O)C(=O)N[C@@H]([C@@H](C)O)C(=O)N[C@@H](C)C(=O)N[C@@H]([C@@H](C)O)C(=O)N1)[C@@H](C)O)C(C)C)C(=O)N[C@@H](C)C(=O)N[C@@H](CCC(N)=O)C(=O)N[C@@H](Cc1ccccc1)C(=O)N[C@H](C(=O)N[C@@H](CC(=O)O)C(=O)N[C@@H](CCCCN)C(=O)N[C@@H](CC(=O)O)C(=O)N[C@@H](CCCCN)C(=O)N[C@@H](CC(=O)O)C(=O)N[C@@H](CC(N)=O)C(=O)N[C@H](C(=O)N[C@@H](C)C(=O)N1CCC[C@H]1C(=O)N1CCC[C@H]1C(=O)N[C@H](C(=O)N[C@@H](CC(N)=O)C(=O)N[C@H](C(=O)NCC(=O)N[C@@H](CO)C(=O)N[C@@H](CC(N)=O)C(=O)NCC(=O)N1C[C@H](O)C[C@H]1C(N)=O)C(C)C)[C@@H](C)O)C(C)C)[C@@H](C)O` [compound 309] (H-KCNTATCTVQWLAHQIAQFTDKDKDNVAPPTNVGSNG[Hyp]-NH2; disulfide 2-7; N-terminus assumed) are 4.250%, 0.025 nM and > 5000 nM.
